How the values were obtained:
UGT1A1 = biological target: T1, UGT1A1 (Homo sapiens, UniProt P22309); conditions: cited from earlier work
T1 sequence (P22309 26-533): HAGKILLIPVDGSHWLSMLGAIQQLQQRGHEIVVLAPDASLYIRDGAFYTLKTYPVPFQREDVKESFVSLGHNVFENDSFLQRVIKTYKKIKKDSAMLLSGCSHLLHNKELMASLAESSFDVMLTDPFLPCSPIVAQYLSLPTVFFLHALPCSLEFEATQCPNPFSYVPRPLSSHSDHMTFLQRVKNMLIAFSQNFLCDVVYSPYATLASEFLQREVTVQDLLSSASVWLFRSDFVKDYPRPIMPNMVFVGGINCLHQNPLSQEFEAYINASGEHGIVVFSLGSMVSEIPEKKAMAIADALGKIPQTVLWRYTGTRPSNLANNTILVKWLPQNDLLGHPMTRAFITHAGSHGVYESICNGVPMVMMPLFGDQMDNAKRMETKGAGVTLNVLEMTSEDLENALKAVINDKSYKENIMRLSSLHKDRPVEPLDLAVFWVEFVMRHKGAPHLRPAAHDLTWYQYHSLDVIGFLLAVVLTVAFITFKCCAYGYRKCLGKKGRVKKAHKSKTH

CYP3A4 = CYP3A4 (Homo sapiens, UniProt P08684); conditions: cited from earlier work
P-gp = P-gp (Homo sapiens, UniProt P08183); conditions: in vitro; cited from earlier work
BCRP = biological target: T2, BCRP (Homo sapiens, UniProt Q9UNQ0); conditions: in vitro; cited from earlier work
T2 sequence (Q9UNQ0 1-655): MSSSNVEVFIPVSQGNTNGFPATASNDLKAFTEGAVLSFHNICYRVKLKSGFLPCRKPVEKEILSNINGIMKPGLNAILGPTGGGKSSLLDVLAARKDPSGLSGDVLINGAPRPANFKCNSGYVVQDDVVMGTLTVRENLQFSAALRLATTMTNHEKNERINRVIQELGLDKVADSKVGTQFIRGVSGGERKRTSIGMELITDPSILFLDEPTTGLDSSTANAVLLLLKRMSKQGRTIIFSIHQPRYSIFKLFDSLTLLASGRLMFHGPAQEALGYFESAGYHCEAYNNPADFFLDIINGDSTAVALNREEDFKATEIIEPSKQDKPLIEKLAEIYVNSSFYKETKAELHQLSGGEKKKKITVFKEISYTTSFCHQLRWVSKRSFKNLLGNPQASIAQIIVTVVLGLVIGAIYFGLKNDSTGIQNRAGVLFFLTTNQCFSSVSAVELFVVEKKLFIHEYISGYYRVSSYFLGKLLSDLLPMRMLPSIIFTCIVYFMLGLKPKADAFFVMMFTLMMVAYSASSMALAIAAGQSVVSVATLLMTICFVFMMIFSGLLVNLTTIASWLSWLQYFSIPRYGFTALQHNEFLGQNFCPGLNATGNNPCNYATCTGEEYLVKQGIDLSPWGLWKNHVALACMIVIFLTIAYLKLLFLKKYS

UGT1A3 = biological target: T3, UGT1A3 (Homo sapiens, UniProt P35503); conditions: in vitro; cited from earlier work
T3 sequence (P35503 29-534): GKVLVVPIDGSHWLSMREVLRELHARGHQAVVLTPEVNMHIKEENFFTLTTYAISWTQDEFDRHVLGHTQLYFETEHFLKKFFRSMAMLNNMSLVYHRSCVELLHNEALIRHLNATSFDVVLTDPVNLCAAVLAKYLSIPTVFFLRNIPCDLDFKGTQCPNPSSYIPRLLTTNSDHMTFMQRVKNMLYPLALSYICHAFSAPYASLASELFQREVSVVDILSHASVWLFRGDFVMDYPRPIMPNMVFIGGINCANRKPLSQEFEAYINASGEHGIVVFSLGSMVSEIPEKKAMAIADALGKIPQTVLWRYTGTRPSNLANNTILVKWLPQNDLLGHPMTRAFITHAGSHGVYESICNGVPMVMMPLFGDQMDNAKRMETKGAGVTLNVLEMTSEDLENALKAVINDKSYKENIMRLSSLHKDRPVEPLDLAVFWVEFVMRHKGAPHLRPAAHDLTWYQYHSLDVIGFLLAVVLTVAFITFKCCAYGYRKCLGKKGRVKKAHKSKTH

UGT1A9 = biological target: T4, UGT1A9 (Homo sapiens, UniProt O60656); conditions: in vitro; cited from earlier work
T4 sequence (O60656 26-530): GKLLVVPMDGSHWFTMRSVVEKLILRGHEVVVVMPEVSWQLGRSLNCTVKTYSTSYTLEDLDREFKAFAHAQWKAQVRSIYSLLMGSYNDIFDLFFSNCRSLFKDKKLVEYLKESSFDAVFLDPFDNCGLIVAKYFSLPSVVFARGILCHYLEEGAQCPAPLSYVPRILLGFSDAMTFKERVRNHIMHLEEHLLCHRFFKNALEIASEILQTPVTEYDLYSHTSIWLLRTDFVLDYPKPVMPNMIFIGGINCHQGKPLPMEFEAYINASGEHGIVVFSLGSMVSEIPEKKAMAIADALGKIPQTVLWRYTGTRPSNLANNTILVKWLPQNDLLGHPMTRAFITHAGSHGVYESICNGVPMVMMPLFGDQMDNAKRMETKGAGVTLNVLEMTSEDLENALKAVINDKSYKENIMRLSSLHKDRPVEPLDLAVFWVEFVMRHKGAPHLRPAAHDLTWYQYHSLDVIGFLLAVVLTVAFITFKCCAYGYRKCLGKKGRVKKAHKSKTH

[1] = Drug-drug interactions: effect on concentration on co-administration (Table 1)
CYP enzymes = conditions: rilpivirine 25 mg once daily; cited from earlier work
CYP3A = conditions: cited from earlier work
[2] = biological target: T5, human cellular DNA polymerase α (Homo sapiens, UniProt P09884); conditions: cited from earlier work
T5 sequence (P09884 1-1462): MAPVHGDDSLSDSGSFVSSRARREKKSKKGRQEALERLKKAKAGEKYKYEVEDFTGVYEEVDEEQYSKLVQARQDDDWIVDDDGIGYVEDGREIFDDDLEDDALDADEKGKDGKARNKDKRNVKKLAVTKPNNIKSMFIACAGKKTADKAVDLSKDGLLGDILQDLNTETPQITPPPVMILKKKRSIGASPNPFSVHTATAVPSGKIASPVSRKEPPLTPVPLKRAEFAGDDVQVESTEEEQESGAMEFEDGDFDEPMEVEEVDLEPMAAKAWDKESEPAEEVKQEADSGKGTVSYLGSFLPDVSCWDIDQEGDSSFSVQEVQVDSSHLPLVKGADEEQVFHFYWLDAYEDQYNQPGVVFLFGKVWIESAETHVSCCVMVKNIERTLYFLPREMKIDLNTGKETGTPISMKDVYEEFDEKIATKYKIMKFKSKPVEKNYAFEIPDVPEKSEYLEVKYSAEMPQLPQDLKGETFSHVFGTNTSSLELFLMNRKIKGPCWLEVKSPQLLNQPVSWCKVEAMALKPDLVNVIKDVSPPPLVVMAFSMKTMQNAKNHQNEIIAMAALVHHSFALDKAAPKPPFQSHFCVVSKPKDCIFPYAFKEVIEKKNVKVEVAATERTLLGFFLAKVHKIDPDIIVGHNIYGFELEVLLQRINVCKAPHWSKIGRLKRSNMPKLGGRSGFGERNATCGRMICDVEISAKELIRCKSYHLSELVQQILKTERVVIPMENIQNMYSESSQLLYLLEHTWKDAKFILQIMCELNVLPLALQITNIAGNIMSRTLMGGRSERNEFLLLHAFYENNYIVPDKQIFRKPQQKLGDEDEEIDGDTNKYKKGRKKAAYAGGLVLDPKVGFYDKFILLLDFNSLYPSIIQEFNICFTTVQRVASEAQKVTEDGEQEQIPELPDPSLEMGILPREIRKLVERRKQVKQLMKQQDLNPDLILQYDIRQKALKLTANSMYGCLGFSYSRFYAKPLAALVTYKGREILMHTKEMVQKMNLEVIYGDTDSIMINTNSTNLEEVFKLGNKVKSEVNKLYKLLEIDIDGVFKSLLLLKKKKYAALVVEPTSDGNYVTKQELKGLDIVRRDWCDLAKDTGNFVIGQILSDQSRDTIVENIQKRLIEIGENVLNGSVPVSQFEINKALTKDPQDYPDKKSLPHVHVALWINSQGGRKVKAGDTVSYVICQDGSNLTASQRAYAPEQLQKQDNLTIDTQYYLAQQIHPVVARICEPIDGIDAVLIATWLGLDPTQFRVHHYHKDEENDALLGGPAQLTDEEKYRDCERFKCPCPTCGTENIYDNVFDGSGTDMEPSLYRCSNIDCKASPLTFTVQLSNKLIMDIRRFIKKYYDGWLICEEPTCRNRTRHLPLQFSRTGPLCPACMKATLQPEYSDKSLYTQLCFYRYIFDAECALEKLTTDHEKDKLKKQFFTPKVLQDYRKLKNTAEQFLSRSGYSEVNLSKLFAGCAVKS

[3] = biological target: T6, human cellular DNA polymerase γ (Homo sapiens, UniProt P54098); conditions: cited from earlier work
T6 sequence (P54098 1-1239): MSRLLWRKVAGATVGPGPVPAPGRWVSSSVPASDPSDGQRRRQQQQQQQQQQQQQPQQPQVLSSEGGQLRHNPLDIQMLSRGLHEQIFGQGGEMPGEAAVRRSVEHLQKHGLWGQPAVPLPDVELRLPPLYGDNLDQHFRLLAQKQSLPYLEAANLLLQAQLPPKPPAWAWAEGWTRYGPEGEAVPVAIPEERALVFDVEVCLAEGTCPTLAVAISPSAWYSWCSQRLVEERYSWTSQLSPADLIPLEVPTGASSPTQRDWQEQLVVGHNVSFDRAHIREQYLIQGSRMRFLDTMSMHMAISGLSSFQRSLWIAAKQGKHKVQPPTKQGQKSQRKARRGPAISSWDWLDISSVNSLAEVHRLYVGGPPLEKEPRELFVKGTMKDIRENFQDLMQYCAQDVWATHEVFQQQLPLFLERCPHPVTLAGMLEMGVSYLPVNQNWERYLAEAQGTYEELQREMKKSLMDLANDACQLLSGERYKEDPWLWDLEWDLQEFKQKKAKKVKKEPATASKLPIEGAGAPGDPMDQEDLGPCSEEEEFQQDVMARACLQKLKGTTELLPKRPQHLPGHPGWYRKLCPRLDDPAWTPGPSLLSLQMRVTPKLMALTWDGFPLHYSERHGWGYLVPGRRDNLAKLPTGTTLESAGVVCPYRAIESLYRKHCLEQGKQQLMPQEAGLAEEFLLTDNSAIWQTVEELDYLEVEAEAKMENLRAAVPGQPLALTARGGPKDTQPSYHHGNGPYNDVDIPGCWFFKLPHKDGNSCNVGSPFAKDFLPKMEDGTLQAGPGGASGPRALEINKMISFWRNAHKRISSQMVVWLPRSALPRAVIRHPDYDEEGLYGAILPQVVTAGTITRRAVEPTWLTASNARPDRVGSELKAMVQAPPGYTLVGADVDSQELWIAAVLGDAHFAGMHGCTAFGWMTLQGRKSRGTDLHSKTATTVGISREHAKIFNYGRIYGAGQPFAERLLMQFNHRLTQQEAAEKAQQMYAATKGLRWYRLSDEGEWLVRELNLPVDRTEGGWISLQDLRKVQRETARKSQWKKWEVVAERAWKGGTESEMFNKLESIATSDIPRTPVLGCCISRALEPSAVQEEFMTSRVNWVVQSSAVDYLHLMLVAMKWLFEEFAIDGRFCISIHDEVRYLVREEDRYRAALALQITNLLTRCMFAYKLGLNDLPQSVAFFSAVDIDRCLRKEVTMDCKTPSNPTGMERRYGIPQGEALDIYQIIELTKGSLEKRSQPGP

[4] = biological target: human cellular DNA polymerase β (Homo sapiens, UniProt P06746); conditions: cited from earlier work

Chain of P-gp (P08183 whole entry): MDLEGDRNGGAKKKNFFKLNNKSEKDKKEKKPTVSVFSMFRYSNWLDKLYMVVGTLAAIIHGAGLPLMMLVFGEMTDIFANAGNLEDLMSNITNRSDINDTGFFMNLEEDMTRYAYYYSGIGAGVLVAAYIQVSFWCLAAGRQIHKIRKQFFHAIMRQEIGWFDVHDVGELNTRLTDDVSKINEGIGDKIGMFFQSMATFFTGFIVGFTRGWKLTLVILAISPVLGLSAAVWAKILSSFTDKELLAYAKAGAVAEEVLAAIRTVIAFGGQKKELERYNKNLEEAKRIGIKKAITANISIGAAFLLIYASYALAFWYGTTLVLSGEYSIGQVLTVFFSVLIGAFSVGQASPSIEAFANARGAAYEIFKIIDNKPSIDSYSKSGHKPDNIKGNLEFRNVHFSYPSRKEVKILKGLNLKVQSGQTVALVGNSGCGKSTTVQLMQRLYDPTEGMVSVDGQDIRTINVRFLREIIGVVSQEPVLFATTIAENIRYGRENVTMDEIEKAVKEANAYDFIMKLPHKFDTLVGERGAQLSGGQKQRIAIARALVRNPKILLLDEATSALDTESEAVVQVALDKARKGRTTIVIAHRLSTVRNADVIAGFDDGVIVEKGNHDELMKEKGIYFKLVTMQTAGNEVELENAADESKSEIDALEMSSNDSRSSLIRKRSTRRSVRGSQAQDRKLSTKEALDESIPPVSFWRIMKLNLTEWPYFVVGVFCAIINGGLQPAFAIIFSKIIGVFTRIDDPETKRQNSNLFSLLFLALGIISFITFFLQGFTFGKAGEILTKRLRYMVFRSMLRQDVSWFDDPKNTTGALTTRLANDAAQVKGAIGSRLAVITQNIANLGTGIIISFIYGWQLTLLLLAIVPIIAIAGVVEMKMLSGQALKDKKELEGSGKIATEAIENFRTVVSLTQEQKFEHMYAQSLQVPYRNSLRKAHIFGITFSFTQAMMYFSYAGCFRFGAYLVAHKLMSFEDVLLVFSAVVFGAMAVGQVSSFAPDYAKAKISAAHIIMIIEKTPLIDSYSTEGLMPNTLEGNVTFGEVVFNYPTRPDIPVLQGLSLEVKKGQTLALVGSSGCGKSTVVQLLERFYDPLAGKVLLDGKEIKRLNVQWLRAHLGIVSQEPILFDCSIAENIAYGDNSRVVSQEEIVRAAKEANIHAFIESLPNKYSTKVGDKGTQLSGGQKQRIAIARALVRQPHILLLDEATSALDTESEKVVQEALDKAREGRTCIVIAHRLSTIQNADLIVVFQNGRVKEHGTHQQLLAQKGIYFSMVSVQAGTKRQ
Chain of CYP3A4 (P08684 whole entry): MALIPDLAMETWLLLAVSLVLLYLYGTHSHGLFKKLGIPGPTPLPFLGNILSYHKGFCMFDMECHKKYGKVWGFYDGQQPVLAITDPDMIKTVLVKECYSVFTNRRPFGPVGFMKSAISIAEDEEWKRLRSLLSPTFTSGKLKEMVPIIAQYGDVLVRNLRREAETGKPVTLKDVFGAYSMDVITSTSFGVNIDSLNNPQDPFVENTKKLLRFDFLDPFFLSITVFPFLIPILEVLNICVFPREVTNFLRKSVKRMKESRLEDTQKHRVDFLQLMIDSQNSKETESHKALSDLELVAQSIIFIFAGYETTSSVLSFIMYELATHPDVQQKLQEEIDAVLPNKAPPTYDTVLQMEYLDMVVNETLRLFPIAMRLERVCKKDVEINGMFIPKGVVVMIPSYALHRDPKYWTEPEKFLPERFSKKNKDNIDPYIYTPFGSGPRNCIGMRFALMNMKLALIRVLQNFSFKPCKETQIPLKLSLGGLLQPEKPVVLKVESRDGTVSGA

O=C(NCc1c(F)cc(F)cc1F)c1cn2c(c(O)c1=O)C(=O)N1[C@H]3CC[C@H](C3)O[C@@H]1C2 [Bictegravir, (2R,5S,13aR)-8-hidroxi-7,9-dioxo-N-[(2,4,6-trifluorofenil)metil]-2,3,4,5,7,9,13,13a-octahidro-2,5-metanopirido [1′,2′:4,5]pirazino[2,1-b][1,3]oxazepina-10-carboxamida]
Metabolic clearance through UGT1A1 (UGT1A1): metabolically cleared | Metabolic clearance through CYP3A4 (CYP3A4): metabolically cleared | Substrate of P-gp (P-gp): substrate | Substrate of BCRP (BCRP): substrate | Substrate of UGT1A3 (UGT1A3): substrate | Substrate of UGT1A9 (UGT1A9): substrate

CN(C)C(=N)N=C(N)N [Metformin]
Effect on Concentration ([1]; concomitant use of metformin and a composition of the invention): ↑Metformin

CCC(=O)C(CC(C)N(C)C)(c1ccccc1)c1ccccc1 (centres unmarked) [Methadone]
Effect on Concentration ([1]; concomitant use of methadone and a composition of the invention): ↔Methadone

CO[C@H]1/C=C/O[C@@]2(C)Oc3c(C)c(O)c4c(c3C2=O)C2=NC3(CCN(CC(C)C)CC3)NC2=C(NC(=O)/C(C)=C\C=C\[C@H](C)[C@H](O)[C@@H](C)[C@@H](O)[C@@H](C)[C@H](OC(C)=O)[C@@H]1C)C4=O [Rifabutin]
Effect on Concentration ([1]; concomitant use of rifabutin and a composition of the invention): ↔Rifabutin

Cc1cc(/C=C/C#N)cc(C)c1Nc1ccnc(Nc2ccc(C#N)cc2)n1 [Rilpivirine, 4-[[4-[[4-[(E)-2-cyanoethenyl]-2,6-dimethylphenyl]amino]-2-pyrimidinyl]amino]benzonitrile]
Effect on the exposure of medicinal products metabolized by CYP enzymes (CYP enzymes): not likely to have a clinically relevant effect | Metabolism by CYP3A (CYP3A): primarily metabolized | Inhibition of human cellular DNA polymerase α [2]: does not inhibit | Inhibition of human cellular DNA polymerase γ [3]: does not inhibit | Inhibition of human cellular DNA polymerase β [4]: does not inhibit

Reference: patent US10758531B2, “Regimens and compositions for treating HIV infections and AIDS” (ViiV Healthcare Company, priority 2016, dated 2020)
